Data on two compounds can be found in article PMC6212544, “Identification and Characterization of Novel CFTR Potentiators” (Frontiers in Pharmacology, 2018).

What all share (type): cell-based
Assay [1] deals with T1, F508del CFTR (Homo sapiens, UniProt P13569, DEL508-508). The assay is described as follows: YFP halide assay, CFBe41o- cells, chemically corrected F508del CFTR. Particulars: GLPG2222-like compound 1 μM as corrector, Supplementary Figure 2. Here is the method: CFBe41o- cells were plated in black 384-well microplates at a density of 1,500 cells per well. After 24 h, cells were transduced with adenoviruses containing F508del CFTR and YFP (H148Q/I152L/) F47L using a multiplicity of infection of 30 infectious units per cell for each adenovirus. The next day, for the low temperature corrected assay, cells were incubated at 27°C for 24 h, for the chemically corrected assay cells were treated with corrector for 24 h at 37°C. On the day of analysis, cells were washed five times with Dulbecco’s Phosphate-Buffered Saline (DPBS) containing Ca^2+ and Mg^2+ (Life Technologies) using a Microplate Washer (BioTek). […] The capacity of potentiators to increase CFTR channel function was expressed as 1-[fluorescence 36 s after NaI addition (F)/fluorescence before NaI addition (F0)], a timepoint optimized previously, resulting in an optimal signal window. […]
T1 sequence (P13569 with tags, fused parts or gaps DEL508-508): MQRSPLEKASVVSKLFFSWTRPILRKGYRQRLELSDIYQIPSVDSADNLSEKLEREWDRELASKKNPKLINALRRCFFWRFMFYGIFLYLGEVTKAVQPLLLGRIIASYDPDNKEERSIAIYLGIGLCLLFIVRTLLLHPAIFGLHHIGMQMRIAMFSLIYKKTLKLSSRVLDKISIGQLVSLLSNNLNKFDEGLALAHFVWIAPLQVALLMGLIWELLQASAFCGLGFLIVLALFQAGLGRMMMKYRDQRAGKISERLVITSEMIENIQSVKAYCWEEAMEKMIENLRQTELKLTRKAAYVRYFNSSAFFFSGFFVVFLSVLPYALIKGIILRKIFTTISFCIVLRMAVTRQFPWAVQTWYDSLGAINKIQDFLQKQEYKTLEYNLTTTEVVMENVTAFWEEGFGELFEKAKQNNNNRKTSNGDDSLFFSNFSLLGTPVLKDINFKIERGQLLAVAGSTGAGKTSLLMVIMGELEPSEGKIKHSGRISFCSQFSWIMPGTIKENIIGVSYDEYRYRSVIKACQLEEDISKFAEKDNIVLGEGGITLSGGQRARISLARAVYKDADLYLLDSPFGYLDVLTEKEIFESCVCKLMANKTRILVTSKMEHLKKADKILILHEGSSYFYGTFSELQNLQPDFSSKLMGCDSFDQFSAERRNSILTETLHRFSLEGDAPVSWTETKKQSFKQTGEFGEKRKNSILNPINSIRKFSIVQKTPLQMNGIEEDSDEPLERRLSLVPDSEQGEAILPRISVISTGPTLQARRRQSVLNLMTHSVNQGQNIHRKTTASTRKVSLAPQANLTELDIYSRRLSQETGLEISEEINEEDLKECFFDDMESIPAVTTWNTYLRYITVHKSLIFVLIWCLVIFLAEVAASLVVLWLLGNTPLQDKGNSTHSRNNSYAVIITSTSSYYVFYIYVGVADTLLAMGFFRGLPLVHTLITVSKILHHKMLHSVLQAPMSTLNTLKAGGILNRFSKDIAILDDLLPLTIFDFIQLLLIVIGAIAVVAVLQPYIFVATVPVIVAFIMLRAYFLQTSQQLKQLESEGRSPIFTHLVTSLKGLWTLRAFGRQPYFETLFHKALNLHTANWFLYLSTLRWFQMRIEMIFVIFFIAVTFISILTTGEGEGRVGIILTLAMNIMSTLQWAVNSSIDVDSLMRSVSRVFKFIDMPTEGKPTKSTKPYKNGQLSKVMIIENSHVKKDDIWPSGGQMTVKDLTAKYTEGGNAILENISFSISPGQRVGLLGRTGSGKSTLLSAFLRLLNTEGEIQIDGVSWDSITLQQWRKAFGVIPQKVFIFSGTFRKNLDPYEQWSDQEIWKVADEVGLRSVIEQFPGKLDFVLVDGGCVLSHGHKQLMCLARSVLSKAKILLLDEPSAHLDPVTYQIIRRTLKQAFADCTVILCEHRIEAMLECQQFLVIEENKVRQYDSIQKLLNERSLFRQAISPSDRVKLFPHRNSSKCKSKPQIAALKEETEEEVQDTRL
Compound activity was then tested in a more physiologically relevant system, i.e., primary bronchial epithelial cells derived from CF patients. The effect on the function of VX809 (3 μM) corrected F508del/F508del CFTR was determined using an electrophysiological readout (TECC) and the data were compared to the data generated in the YFP halide assay. […]

Assay [2] concerns the target T1, F508del CFTR. The assay can be described thus: YFP halide assay, CFBe41o- cells, low temperature rescued F508del CFTR. Particulars: 27°C 24 h, 10 μM forskolin, read-out: EC50, potentiation of low temperature rescued F508del CFTR. Here is the method: CFBe41o- cells were plated in black 384-well microplates at a density of 1,500 cells per well. After 24 h, cells were transduced with adenoviruses containing F508del CFTR and YFP (H148Q/I152L/) F47L using a multiplicity of infection of 30 infectious units per cell for each adenovirus. The next day, for the low temperature corrected assay, cells were incubated at 27°C for 24 h, for the chemically corrected assay cells were treated with corrector for 24 h at 37°C. On the day of analysis, cells were washed five times with Dulbecco’s Phosphate-Buffered Saline (DPBS) containing Ca^2+ and Mg^2+ (Life Technologies) using a Microplate Washer (BioTek). Then, cells were treated with 10 μM forskolin and the desired concentration of potentiator in a volume of 30 μl and the plates were incubated at room temperature for 10 min, a timepoint optimized in previous experiments showing good window (positive control/negative control > 2) and signal to background ratio. The YFP fluorescence was recorded for 2 min, starting immediately before addition of 30 μl NaI buffer (375 mM NaI, 7.5 mM KI, 1.76 mM KH2PO4, 10.1 mM Na2HPO4, 13.75 mM glucose) to the wells, using a FDSS/μCell (Hamamatsu) fluorescence reader with a 480 nm excitation filter and a 540 nm emission filter. The capacity of potentiators to increase CFTR channel function was expressed as 1-[fluorescence 36 s after NaI addition (F)/fluorescence before NaI addition (F0)], a timepoint optimized previously, resulting in an optimal signal window. Data was normalized using the formula: normalized response = 100^∗ (absolute response – negative control response)/(VX770 response – negative response) as such, VX770 response corresponds to 100. For Dose-response experiments, data was fitted using a 4 parameter hill function of the form Response = Bottom + (Top-Bottom)/(1 + 10ˆ((LogEC50-concentration)^∗HillSlope)) to determine EC50 values.

In assay [3] the target is T2, R117H CFTR (Homo sapiens, UniProt P13569, R117H).
T2 construct: expressed in transfected cells; host or cells: HEK293, transient (jetPEI)
T2 sequence (P13569 whole entry R117H): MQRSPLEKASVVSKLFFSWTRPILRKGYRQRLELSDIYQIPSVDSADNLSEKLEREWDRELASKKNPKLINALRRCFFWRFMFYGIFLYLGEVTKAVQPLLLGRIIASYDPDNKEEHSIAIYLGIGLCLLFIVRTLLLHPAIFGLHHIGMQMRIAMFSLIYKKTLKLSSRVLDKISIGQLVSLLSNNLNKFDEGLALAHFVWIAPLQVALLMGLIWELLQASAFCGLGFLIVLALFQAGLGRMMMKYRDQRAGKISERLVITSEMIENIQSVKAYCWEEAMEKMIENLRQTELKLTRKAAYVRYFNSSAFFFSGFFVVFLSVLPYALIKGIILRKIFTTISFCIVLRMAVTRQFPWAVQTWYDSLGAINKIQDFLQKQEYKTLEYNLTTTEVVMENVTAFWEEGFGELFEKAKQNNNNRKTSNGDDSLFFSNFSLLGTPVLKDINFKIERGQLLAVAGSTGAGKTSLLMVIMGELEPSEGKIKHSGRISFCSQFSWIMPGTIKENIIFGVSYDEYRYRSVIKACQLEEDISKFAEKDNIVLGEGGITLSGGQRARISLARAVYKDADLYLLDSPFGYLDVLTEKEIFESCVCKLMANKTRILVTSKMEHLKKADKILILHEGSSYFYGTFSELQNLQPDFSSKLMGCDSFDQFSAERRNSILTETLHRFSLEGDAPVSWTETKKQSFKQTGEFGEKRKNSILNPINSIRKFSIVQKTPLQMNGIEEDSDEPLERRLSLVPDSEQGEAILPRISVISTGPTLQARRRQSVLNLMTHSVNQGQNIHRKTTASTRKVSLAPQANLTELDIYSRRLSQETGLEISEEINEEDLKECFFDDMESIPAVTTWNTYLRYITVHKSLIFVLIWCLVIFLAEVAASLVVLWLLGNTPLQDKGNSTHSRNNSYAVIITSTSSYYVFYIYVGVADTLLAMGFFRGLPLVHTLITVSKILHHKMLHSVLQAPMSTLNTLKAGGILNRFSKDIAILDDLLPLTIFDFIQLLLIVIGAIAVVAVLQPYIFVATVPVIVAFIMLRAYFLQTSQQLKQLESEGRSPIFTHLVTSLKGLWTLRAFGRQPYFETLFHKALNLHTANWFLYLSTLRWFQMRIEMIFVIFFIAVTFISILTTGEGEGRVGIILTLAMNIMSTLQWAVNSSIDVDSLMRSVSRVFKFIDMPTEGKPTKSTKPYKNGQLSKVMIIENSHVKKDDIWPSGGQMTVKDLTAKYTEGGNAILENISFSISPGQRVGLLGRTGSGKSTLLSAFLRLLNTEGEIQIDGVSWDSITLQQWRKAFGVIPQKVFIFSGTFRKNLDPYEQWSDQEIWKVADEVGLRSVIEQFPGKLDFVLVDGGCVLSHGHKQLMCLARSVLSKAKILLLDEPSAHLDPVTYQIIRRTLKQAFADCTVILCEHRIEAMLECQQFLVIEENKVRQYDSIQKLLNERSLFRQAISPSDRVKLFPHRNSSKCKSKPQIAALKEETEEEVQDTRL
The assay is described as follows: YFP halide assay, HEK293 cells expressing R117H CFTR. Particulars: 10 μM forskolin, VX770 = 100. As to the method:
(§1) HEK293 cells were transfected with 10–80 ng of plasmid encoding G551D, G178R, G1349D, S549N, R117H, R334W, or wild type CFTR and 20 ng of plasmid encoding YFP (H148Q/I152L/F47L) using jetPEI (Polyplus transfection). Directly after transfection, cells were seeded in black 96-well plates coated with Poly-D-lysine at a density of 70,000 cells per well. The next day, cells were incubated at 27°C for 24 h, for low temperature correction. When evaluating in a chronic setting, the potentiator concentration range was also added to the cells for 24 h. After this incubation period, cells were washed twice with DPBS with Ca^2+ and Mg^2+. Subsequently, cells were treated with 10 μM forskolin and the desired concentration of potentiator in a volume of 40 μl and incubated at room temperature for 10 min, a timepoint optimized in previous experiments resulting in a good window (positive control/negative control > 2) and signal to background ratio. YFP fluorescence was measured using an EnVision plate reader (PerkinElmer). […] The excitation wavelength was 485 nm and the emission wavelength 530 nm. The capacity of potentiators to increase CFTR channel function was expressed as 1-[fluorescence 7 s after NaI addition (F)/fluorescence before NaI addition (F0)]. […]

In assay [4] the target is WT CFTR (Homo sapiens, UniProt P13569). The assay is described as follows: YFP halide assay, HEK293 cells expressing WT CFTR. Particulars: HEK293, 10 μM forskolin; read-out: Potency on WT CFTR (YFP halide assay). Set-up: expressed in transfected cells. As to the method:
as §1

WT CFTR, sequence (P13569 whole entry): as the sequence (P13569 whole entry R117H) above, with H117R counted along it

Turning to `CC1(C)Cc2c(sc(NC(=O)c3ccn[nH]3)c2C(N)=O)C(C)(C)O1` [GLPG1837, N-(3-Carbamoyl-5,5,7,7-tetramethyl-5,7-dihydro-4H-thieno[2,3-c]pyran-2-yl)-lH-pyrazole-5-carboxamide], the “Potency on chemically corrected F508del CFTR (YFP halide assay)” value in assay [1] was “corresponded closely to the potency obtained on chemically corrected F508del HBE cells”. In addition, the EC50 in assay [2] came to 3.5 ± 0.2 nM; in assay [4], 104 nM. The “Efficacy on R117H CFTR relative to VX770” value in assay [3] is 120%.

Regarding `C[C@H](O)CNC(=O)c1ncc(S(=O)(=O)c2ccc(OC(F)(F)F)cc2)cc1N` [GLPG2451], the “Potency on chemically corrected F508del CFTR (YFP halide assay)” value in assay [1] is “corresponded closely to the potency obtained on chemically corrected F508del HBE cells”. The figures for the EC50 in assay [2] and in assay [4] were 11.1 ± 3.6 nM and 79.7 nM, respectively. Besides, the “Efficacy on R117H CFTR relative to VX770” value in assay [3] was 105%.
